The assay concerns the target T1, human PAD4 (Homo sapiens, UniProt Q9UM07).
T1 construct: human PAD4 (NM_012387), A2-P663, was PCR amplified; His-SUMO (N, cleaved yes); made in house; host or cells: E. coli BL21(DE3)
Description: In vitro PAD4 BAEE biochemical assay. The following applies: BAEE substrate 3 mM, 5 nM PAD4, 2 mM calcium chloride; geometric mean of multiple experiments. In short, it runs like this: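 Ammonia produced by BAEE deimination (3 mM substrate, 2 h, 25 °C) was read as fluorescent isoindole after o-phthalaldehyde/DTT derivatization, ex 405 nm/em 535 nm. Human PAD4 at 5 nM final, 2 mM calcium, pH 7.6 MOPS; compound preincubated 30 min. IC50s, normalized to BB-Cl-Amidine and DMSO controls, were geometric-mean averaged.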

T1 sequence (Q9UM07 2-663): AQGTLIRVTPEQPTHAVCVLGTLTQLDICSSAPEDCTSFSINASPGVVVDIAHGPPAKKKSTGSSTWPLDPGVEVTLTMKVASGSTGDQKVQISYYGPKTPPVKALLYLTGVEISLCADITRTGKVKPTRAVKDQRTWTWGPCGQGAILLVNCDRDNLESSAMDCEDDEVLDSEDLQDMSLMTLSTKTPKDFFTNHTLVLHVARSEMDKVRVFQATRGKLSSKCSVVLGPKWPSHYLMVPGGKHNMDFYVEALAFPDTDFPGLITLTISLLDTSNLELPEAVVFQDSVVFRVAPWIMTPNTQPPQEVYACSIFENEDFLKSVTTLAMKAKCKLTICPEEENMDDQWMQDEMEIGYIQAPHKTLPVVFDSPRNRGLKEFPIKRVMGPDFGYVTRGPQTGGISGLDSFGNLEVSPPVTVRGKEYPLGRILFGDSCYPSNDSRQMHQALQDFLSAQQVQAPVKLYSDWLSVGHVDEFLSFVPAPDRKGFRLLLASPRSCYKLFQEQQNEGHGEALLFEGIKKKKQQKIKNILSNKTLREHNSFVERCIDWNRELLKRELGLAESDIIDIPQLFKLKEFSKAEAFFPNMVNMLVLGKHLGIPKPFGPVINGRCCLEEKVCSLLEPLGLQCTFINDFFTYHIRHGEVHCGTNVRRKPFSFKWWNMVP

Take `COc1cc(C(=O)N[C@H]2CNCC(F)(F)C2)cc2nc(-c3cc4ccc5nc4n3CCCCCCC(C)(C)C(=O)N[C@@H]5C)n(C)c12` [Example 63, ~{N}-[(3~{R})-5,5-difluoro-3-piperidyl]-7-methoxy-1-methyl-2-[(11~{R})-8,8,11-trimethyl-9-oxo-1,10,19-triazatricyclo[10.5.2.0^{15,18}]nonadeca-12(19),13,15(18),16-tetraen-17-yl]benzimidazole-5-carboxamide]: the IC50 (in general, the concentration that gives 50% inhibition) was found to be 25000 nM. With `CCn1c(-c2cc3ccc4nc3n2CCCCC[C@]2(F)C[C@H]2C(=O)N[C@@H]4C)nc2cc(C(=O)N3C[C@H](N)[C@@H]4CC[C@H]3C4)cc(F)c21` [Example 938, (2~{R},5~{S},7~{S})-14-[5-[(1~{S),4~{R},5~{R})-4-amino-2-azabicyclo[3.2.1]octane-2-carbonyl]-1-ethyl-7-fluoro-benzimidazol-2-yl]-7-fluoro-2-methyl-3,13,19-triazatetracyclo[11.5.2.0^ {5,7}.0^{16,20}]icosa-1(19), 14,16(20),17-tetraen-4-one] the figure was 28 nM; with “(2~{R})-17-[5-[(1~{S),4~{R}, 5~{R})-4-amino-2-azabicyclo [3.2.1]octane-2-carbonyl]-1- cyclopropyl-benzimidazol-2- yl]-8-chloro-2-methyl-3,9,16,22- tetrazatetracyclo[14.5.2.0^ {5,10}.0^{19,23}]tricosa- 1(22),5(10),6,8,17,19(23),20- heptaen-4-one [Example 926]”, 23 nM. As for `CC(C)n1c(-c2cc3ccc4nc3n2CCCCCCC(C)(C)C(=O)N[C@@H]4C)nc2cc(C(=O)N[C@H]3CNCC[C@@H]3F)c(F)cc21` [Example 421, 6-fluoro-~{N}-[(3~{S),4~{S})-4-fluoro-3-piperidyl]-1-isopropyl-2-[(11~{R})-8,8,11-trimethyl-9-oxo-1,10,19-triazatricyclo[10.5.2.0^{15,18}]nonadeca-12(19),13,15(18),16-tetraen-17-yl]benzimidazole-5-carboxamide], the concentration for half-maximal inhibition (IC50) turned out to be 304 nM. As for `COCCn1c(-c2cc3ccc4nc3n2CCCCCCC(C)(C)C(=O)N[C@@H]4C)nc2cc(C(=O)N[C@H]3CNCC[C@@H]3F)c(F)c(F)c21` [Example 558, 6,7-difluoro-~{N}-[(3~{S},4~{S})-4-fluoro-3-piperidyl]-1-(2-methoxyethyl)-2-[(11~{R})-8,8,11-trimethyl-9-oxo-1,10,19-triazatricyclo [10.5.2.0^{15,18}]nonadeca-12(19),13,15(18),16-tetraen-17-yl]benzimidazole-5-carboxamide], the IC50 amounted to 80 nM. The same measure for `COc1cc(C(=O)N[C@H]2CNCC[C@@H]2F)cc2nc(-c3cc4ccc5nc4n3C[C@H]3C[C@H]3CCCC(C)(C)C(=O)N[C@@H]5C)n(C)c12` [Example 367, ~{N}-[(3~{S},4~{S})-4-fluoro-3-piperidyl]-7-methoxy-1-methyl-2-[(3~{S},5~{R},12~{R})-9,9,12-trimethyl-10-oxo-1,11,20-triazatetracyclo[11.5.2.0^{3,5}.0^{16,19}]icosa-13(20),14,16(19),17-tetraen-18-yl]benzimidazole-5-carboxamide]: 82 nM; for `C[C@H]1NS(=O)(=O)CCCC/C=C/Cn2c(-c3nc4cc(C(=O)N[C@H]5CNCC[C@@H]5F)c(F)cc4n3C)cc3ccc1nc32` [Example 497, 6-fluoro-~{N}-[(3~ {S},4~{S})-4-fluoro-3-piperidyl]-1-methyl-2-[(3~{E},11~{R})-11-methyl-9,9-dioxo-9$1^6-thia-1,10,19-triazatricyclo[10.5.2.0^{15,18}]nonadeca-3,12(19),13,15 (18),16-pentaen-17-yl]benzimidazole-5-carboxamide]: 54 nM. For the compound `COc1cc(C(=O)N2CCC(OC3CC3)C(N)C2)cc2nc(-c3cc4ccc5nc4n3CCCCCCC(C)(C)C(=O)N[C@@H]5C)n(C)c12` (stereo partly shown) [Example 527, (11~{R})-17-[5-[3-amino-4-(cyclopropoxy)piperidine-1-carbonyl]-7-methoxy-1-methyl-benzimidazol-2-yl]-8,8,11-trimethyl-1,10,19-triazatricyclo[10.5.2.0^ {15,18}]nonadeca-12(19),13,15(18), 16-tetraen-9-one], the IC50 worked out at 215 nM. With `COc1cc(C(=O)N2C[C@H](N)[C@@H]3CC[C@H]2C3)cc2nc(-c3cc4ccc5nc4n3CCCCC[C@]3(F)C[C@H]3C(=O)N[C@@H]5C)n(C)c12` [Example 451, (2~{R},5~{S},7~{S})-14-[5-[(1~{S},4~{R},5~{R})-4-amino-2-azabicyclo[3.2.1]octane-2-carbonyl]-7-methoxy-1-methyl-benzimidazol-2-yl]-7-fluoro-2-methyl-3,13,19-triazatetracyclo[11.5.2.0^{5,7}.0^{16,20}] icosa-1(19),14,16(20),17-tetraen-4-one] the figure was 19 nM; with `COc1cc(C(=O)N[C@@H]2CCCNC2)cc2nc(-c3cc4ccc5nc4n3CCCCCCC(C)(C)C(=O)N[C@@H]5C)n(C)c12` [Example 70, 7-methoxy-1-methyl-~{N}-[(3~{R})-3-piperidyl]-2-[(11~{R})-8,8,11-trimethyl-9-oxo-1,10,19-triazatricyclo[10.5.2.0^{15,18}]nonadeca-12(19),13,15(18),16-tetraen-17-yl]benzimidazole-5-carboxamide], 137 nM. `COc1cc(C(=O)N2C[C@H](N)[C@@H]3CC[C@H]2C3)cc2nc(-c3cc4ccc5nc4n3CCC[C@H]3C[C@@H]3c3ccccc3C(=O)N[C@@H]5C)n(C)c12` [Example 893]: the IC50 came to 28 nM.

For `C[C@H]1NC(=O)C(C)(C)CCCCCCn2c(-c3nc4cc(C(=O)N5[C@H]6CC[C@@H]5[C@H](N)C6)c(F)c(F)c4n3C)cc3ccc1nc32` [Example 555, (11~{R})-17-[5-[(1~{R}, 2~{R},4~{S})-2-amino-7-azabicyclo [2.2.1]heptane-7-carbonyl]-6,7-difluoro-1-methyl-benzimidazol-2-yl]-8,8,11-trimethyl-1,10,19-triazatricyclo [10.5.2.0^{15,18}]nonadeca-12(19),13,15(18),16-tetraen-9-one], the IC50 is 56 nM. The same measure for `COCCO[C@@H]1CCN(C(=O)c2cc(OC)c3c(c2)nc(-c2cc4ccc5nc4n2CCCCC[C@@H]2C[C@H]2C(=O)N[C@@H]5C)n3C)C[C@@H]1N` [Example 493, (2~{R},5~{R},7~{R})-14-[5-[(3~{S},4~{R})-3-amino-4-(2-methoxyethoxy)piperidine-1-carbonyl]-7-methoxy-1-methyl-benzimidazol-2-yl]-2-methyl-3,13,19-triazatetracyclo [11.5.2.0^{5,7}.0^{16,20}] icosa-1(19),14,16(20), 17-tetraen-4-one]: 76 nM; for `COc1cc(C(=O)N2[C@H]3CC[C@@H]2[C@H](N)C3)cc2nc(-c3cc4ccc5cc4n3CCCCCCCC(=O)N3CCC[C@H]53)n(C)c12` [Example 129, (2~{R})-16-[5-[(1~{R},2~{R},4~{S})-2-amino-7-azabicyclo[2.2.1]heptane-7-carbonyl]-7-methoxy-1-methyl-benzimidazol-2-yl]-6,15-diazatetracyclo[13.5.2.0^{2,6}.0^{18,22}] docosa-1(21),16,18(22),19-tetraen-7-one]: 13 nM; for `COc1cc(C(=O)N2C[C@H]3CC[C@@H]2[C@@H]3N)cc2nc(-c3cc4ccc5nc4n3CCCCCC[C@](C)(C(F)(F)F)C(=O)N[C@@H]5C)n(C)c12` [Example 724, (8~{S},11~{R})-17-[5-[(1~{R},4~{R},7~{R})-7-amino-2-azabicyclo[2.2.1]heptane-2-carbonyl]-7-methoxy-1-methyl-benzimidazol-2-yl]-8,11-dimethyl-8-(trifluoromethyl)-1,10,19-triazatricyclo [10.5.2.0^{15,18}]nonadeca-12(19),13,15(18),16-tetraen-9-one]: 94 nM.

Consider `COc1cc(C(=O)N2CC[C@H]3OCCN[C@H]3C2)cc2nc(-c3cc4ccc5cc4n3CCCCCCC(C)(C)C(=O)N[C@@H]5C)n(C)c12` [Example 190, (11~{R})-17-[5-[(4~{a}~{S},8~{a}~{R})-2,3,4,4~{a},5,7,8,8~{a}-octahydropyrido[4,3-b][1,4]oxazine-6-carbonyl]-7-methoxy-1-methyl-benzimidazol-2-yl]-8,8,11-trimethyl-1,10-diazatricyclo[10.5.2.0^{15,18}]nonadeca-12(19),13,15(18),16-tetraen-9-one], for which the IC50 was 94 nM. Take `C[C@H]1NC(=O)[C@@H]2C[C@H]2CCCC(F)(F)Cn2c(-c3nc4cc(C(=O)N5C[C@H](N)[C@@H]6CC[C@H]5C6)c(F)cc4n3C3CC3)cc3ccc1nc32` [Example 455, (2~{R},5~{R},7~{R})-14-[5-[(1~{S},4~{R},5~{R})-4-amino-2-azabicyclo[3.2.1]octane-2-carbonyl]-1-cyclopropyl-6-fluoro-benzimidazol-2-yl]-11,11-difluoro-2-methyl-3,13,19-triazatetracyclo[11.5.2.0^{5,7}.0^{16,20}] icosa-1(19),14,16(20),17-tetraen-4-one]: the IC50 came to 36 nM. With `COc1cc(C(=O)N2[C@H]3CC[C@@H]2[C@H](N)C3)cc2nc(-c3cc4ccc5nc4n3CCCCCc3ccccc3C(=O)N[C@@H]5C)n(C)c12` [Example 39, (2~{R})-17-[5-[(1~{R},2~{R),4~{S})-2-amino-7-azabicyclo[2.2.1]heptane-7-carbonyl]-7-methoxy-1-methyl-benzimidazol-2-yl]-2-methyl-3,16,22-triazatetracyclo[14.5.2.0^{5,10}.0^{19,23}] tricosa-1(22),5,7,9,17,19(23),20-heptaen-4-one] the figure was 23 nM. Consider `COc1cc(C(=O)N2CCC[C@@H](N)C2)cc2nc(-c3cc4ccc5nc4n3CCCCCOCC(C)(C)C(=O)N[C@@H]5C)n(C)c12` [Example 17, (12~{R})-18-[5-[(3~{R})-3-aminopiperidine-1-carbonyl]-7-methoxy-1-methyl-benzimidazol-2-yl]-9,9,12-trimethyl-7-oxa-1,11,20-triazatricyclo[11.5.2.0^{16,19}]icosa-13(20),14,16(19),17-tetraen-10-one], for which the IC50 was found to be 74 nM.

Source of the values: patent US11976083B2, “Inhibitors of peptidylarginine deiminases” (Gilead Sciences, Inc., priority 2020, dated 2024).
